From ChEMBL document CHEMBL4765362, “Thirty Years of HDAC Inhibitors: 2020 Insight and Hindsight” (J Med Chem, 2020)

How the values were obtained:
Histone deacetylase 9 = Histone deacetylase 9 (Homo sapiens, UniProt Q9UKV0); test: Inhibition of HDAC9 (unknown origin)
[1] = molecular target: T1, Protein deacetylase HDAC6 (Homo sapiens, UniProt Q9UBN7); test: Inhibition of HDAC6 (unknown origin)
T1 sequence (Q9UBN7 whole entry): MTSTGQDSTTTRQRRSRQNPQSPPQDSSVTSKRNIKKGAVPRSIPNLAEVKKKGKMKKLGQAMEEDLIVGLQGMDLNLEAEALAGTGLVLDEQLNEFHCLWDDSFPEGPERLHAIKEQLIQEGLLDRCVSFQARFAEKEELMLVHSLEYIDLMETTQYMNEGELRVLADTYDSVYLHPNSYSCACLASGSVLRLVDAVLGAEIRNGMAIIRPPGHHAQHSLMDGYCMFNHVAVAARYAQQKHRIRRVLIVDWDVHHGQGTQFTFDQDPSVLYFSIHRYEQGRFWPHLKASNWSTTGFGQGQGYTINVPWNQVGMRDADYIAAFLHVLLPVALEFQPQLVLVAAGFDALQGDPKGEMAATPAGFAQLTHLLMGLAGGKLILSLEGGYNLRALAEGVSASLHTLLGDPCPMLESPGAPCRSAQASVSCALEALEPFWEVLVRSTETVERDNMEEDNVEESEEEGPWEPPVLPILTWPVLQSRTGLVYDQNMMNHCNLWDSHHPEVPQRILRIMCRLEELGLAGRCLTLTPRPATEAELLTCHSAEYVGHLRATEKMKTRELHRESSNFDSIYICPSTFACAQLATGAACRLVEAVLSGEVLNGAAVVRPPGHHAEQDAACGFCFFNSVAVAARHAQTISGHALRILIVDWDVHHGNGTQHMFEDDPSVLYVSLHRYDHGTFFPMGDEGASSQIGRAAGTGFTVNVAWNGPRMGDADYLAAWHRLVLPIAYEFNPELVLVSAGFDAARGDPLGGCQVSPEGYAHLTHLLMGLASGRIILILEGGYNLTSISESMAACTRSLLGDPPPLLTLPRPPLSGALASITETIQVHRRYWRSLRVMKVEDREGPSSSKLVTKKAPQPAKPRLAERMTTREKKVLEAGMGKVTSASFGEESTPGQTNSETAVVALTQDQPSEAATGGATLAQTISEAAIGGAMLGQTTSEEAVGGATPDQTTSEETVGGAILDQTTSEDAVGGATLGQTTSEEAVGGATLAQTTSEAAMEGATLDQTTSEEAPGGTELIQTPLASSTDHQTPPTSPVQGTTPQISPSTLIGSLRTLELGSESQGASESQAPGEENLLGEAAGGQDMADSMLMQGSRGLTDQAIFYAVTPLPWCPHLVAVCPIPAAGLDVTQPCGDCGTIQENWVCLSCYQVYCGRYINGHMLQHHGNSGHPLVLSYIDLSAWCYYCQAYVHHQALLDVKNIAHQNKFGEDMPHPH

Histone deacetylase 5 [2] = molecular target: T2, Histone deacetylase 5 (Homo sapiens, UniProt Q9UQL6); test: Inhibition of HDAC5 (unknown origin)
Histone deacetylase 1 = Histone deacetylase 1 (Homo sapiens, UniProt Q13547); test: Inhibition of human full length C-terminal Flag tagged HDAC1 expressed in HEK293T cells using H3K9-myristoyl peptide as substrate by HPLC method
Histone deacetylase 3 = Histone deacetylase 3 (Homo sapiens, UniProt O15379); test: Inhibition of HDAC3 (unknown origin)
Histone deacetylase 4 = Histone deacetylase 4 (Homo sapiens, UniProt P56524); test: Inhibition of human full length C-terminal Flag tagged HDAC4 expressed in HEK293T cells using H3K9-myristoyl peptide as substrate by HPLC method
Histone deacetylase 8 = molecular target: T3, Histone deacetylase 8 (Homo sapiens, UniProt Q9BY41); test: Inhibition of HDAC8 (unknown origin) using p53 (379 to 382 residues)(RHK(Ac)K(ac)AMC) as substrate by fluorescent method
T3 sequence (Q9BY41 whole entry): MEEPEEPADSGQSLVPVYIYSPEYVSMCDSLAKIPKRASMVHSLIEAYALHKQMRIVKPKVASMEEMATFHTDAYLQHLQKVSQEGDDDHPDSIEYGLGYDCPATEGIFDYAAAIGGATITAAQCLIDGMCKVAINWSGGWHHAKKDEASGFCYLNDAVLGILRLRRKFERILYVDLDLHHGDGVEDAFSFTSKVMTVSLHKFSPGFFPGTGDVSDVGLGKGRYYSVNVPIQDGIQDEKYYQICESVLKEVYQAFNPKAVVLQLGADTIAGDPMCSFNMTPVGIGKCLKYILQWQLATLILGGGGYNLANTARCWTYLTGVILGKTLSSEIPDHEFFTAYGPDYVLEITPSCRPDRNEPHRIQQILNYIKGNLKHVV

Histone deacetylase 7 = molecular target: T4, Histone deacetylase 7 (Homo sapiens, UniProt Q8WUI4); test: Inhibition of HDAC7 (unknown origin) using HDAC class IIa substrate (trifluoroacetyl-lysine-AMC) as substrate by fluorescent method
T4 sequence (Q8WUI4 whole entry): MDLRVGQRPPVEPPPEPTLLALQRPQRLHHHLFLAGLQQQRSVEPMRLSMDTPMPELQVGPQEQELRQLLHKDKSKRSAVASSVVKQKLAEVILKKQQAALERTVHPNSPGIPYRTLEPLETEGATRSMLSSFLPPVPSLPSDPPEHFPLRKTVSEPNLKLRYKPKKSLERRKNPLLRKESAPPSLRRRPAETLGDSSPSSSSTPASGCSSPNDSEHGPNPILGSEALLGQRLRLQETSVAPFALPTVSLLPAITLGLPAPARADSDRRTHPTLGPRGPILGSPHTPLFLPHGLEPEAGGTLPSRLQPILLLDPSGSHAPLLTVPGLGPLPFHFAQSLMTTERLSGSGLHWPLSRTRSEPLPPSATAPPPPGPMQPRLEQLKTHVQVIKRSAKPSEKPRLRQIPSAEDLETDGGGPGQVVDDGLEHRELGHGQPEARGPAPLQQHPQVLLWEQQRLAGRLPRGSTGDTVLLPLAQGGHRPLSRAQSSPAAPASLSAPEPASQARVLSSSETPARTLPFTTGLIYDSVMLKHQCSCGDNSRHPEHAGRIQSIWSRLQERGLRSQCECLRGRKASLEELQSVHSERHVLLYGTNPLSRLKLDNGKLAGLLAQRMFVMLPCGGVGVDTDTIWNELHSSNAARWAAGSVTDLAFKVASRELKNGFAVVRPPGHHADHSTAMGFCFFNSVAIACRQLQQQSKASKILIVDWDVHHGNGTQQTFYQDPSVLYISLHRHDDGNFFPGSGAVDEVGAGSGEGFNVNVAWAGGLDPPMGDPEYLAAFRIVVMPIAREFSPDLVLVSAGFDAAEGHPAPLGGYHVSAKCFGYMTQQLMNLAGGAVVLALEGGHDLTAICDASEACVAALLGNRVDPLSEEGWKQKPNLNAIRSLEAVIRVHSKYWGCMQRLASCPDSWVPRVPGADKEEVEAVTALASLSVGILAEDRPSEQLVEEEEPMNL

Histone deacetylase 5 [3] = molecular target: T2, Histone deacetylase 5; test: Inhibition of HDAC5 (unknown origin) using HDAC class IIa substrate (trifluoroacetyl-lysine-AMC) as substrate by fluorescent method
[4] = molecular target: T1, Protein deacetylase HDAC6; test: Inhibition of HDAC6 (unknown origin) using p53 residues (379 to 382)(RHKK(Ac)-AMC) as substrate by fluorescent method

Measured: IC50

T2 sequence (Q9UQL6 whole entry): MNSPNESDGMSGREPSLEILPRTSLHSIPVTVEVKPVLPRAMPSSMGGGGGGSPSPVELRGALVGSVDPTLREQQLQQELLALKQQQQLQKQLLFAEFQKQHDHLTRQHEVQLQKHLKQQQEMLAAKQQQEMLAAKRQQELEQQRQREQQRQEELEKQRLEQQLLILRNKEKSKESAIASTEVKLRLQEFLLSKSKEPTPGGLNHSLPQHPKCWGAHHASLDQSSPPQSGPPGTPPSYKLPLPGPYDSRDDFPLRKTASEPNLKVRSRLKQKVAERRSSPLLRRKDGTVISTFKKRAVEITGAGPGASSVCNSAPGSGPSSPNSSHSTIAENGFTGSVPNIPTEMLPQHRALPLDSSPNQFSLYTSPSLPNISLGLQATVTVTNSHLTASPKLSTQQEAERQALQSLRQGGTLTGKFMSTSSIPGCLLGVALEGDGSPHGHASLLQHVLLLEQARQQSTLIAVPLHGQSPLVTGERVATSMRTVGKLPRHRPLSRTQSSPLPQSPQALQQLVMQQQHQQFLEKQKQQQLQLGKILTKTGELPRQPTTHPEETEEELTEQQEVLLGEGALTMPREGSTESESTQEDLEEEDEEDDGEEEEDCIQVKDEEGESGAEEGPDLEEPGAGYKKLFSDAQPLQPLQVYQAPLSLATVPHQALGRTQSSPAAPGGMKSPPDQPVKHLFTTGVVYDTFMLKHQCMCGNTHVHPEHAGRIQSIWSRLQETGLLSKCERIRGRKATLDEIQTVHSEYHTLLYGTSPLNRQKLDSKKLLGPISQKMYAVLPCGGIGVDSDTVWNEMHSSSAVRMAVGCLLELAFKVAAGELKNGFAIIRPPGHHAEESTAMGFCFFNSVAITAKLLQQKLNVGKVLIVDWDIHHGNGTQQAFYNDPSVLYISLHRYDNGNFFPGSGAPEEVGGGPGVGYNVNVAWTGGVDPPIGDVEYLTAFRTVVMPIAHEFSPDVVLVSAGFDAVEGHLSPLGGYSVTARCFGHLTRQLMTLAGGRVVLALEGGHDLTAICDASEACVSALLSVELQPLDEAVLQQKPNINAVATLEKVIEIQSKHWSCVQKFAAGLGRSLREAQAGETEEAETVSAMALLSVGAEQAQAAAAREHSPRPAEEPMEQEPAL
Sequence of Histone deacetylase 1 (Q13547 whole entry): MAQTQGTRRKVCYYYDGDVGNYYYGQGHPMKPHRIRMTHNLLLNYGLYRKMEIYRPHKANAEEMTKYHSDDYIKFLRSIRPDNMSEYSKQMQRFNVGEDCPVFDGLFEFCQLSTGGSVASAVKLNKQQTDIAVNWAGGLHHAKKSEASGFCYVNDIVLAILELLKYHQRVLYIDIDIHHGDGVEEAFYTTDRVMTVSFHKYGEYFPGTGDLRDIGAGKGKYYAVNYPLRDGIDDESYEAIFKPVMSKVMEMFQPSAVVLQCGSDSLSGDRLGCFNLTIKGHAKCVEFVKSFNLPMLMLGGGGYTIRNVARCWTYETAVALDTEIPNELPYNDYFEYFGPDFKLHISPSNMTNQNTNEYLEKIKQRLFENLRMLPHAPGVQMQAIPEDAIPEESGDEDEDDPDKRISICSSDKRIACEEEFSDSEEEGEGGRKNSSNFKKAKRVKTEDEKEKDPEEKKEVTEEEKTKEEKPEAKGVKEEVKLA
Sequence of Histone deacetylase 9 (Q9UKV0 whole entry): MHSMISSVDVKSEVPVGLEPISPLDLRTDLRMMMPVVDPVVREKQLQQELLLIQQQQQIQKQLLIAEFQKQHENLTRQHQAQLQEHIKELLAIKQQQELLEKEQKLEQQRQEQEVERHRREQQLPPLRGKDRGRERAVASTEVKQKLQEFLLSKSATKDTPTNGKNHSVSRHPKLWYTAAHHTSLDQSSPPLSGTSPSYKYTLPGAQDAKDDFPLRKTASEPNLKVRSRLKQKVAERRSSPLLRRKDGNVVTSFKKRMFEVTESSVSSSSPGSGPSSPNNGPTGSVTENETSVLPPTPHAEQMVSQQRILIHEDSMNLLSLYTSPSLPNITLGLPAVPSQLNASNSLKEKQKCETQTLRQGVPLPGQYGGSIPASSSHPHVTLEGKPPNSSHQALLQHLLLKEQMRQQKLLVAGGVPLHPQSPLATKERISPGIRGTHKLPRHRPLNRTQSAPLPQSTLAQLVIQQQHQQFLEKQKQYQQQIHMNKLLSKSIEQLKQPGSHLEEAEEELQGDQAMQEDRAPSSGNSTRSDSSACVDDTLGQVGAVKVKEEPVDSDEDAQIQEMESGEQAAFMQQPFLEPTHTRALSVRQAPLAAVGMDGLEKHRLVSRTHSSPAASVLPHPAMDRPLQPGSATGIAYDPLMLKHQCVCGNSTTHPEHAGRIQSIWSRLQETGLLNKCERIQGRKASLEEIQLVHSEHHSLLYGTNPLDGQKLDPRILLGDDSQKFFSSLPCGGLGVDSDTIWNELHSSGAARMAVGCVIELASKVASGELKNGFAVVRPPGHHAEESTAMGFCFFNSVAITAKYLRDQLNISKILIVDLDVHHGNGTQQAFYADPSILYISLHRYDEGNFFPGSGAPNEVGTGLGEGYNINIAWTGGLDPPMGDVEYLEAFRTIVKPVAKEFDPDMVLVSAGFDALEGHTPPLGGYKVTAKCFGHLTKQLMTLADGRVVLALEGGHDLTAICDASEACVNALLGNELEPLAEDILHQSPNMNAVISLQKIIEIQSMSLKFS
Sequence of Histone deacetylase 4 (P56524 whole entry, the tested form may be a part): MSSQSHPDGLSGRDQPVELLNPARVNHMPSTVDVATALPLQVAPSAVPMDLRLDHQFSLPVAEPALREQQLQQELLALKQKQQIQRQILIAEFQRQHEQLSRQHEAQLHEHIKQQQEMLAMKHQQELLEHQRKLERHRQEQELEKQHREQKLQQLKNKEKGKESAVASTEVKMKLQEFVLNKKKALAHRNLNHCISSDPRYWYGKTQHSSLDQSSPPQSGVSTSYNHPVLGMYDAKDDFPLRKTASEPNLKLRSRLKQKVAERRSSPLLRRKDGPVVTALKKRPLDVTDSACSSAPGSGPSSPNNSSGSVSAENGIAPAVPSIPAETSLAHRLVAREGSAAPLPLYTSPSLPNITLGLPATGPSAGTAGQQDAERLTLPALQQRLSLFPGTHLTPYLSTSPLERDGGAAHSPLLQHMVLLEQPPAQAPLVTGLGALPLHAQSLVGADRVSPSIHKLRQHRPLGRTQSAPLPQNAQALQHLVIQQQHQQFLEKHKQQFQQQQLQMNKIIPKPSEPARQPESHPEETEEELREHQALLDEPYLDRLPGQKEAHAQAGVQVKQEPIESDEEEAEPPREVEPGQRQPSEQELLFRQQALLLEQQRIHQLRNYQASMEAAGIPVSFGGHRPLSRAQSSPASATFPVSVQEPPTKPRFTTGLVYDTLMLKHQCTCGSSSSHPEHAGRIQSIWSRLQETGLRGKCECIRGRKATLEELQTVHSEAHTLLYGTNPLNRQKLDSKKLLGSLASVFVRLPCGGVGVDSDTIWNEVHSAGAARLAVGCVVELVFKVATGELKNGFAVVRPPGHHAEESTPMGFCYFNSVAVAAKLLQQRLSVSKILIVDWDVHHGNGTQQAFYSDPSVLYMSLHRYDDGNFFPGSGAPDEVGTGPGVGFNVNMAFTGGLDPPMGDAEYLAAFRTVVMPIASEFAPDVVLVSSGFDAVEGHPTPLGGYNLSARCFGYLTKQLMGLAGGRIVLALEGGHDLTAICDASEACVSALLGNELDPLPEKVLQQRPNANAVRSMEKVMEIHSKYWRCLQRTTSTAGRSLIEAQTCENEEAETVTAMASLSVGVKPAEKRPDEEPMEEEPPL
Sequence of Histone deacetylase 3 (O15379 whole entry): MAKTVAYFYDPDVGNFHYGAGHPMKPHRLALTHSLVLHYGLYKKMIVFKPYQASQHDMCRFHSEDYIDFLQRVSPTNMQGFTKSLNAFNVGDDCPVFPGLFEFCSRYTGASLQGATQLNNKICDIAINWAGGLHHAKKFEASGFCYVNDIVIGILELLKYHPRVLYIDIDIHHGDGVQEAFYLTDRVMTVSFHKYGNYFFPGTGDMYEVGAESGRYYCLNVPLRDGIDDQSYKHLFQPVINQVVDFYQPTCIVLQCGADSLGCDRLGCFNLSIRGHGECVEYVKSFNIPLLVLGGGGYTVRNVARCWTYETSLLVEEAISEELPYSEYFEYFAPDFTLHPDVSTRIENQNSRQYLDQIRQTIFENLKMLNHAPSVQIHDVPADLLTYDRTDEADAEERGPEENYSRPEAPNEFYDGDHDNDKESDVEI

CCCCCCCCCCCCCCCCNNC(=O)c1cccs1
> 10 µM: Histone deacetylase 9 | [1] | Histone deacetylase 5 [2] | Histone deacetylase 1 | Histone deacetylase 3 | Histone deacetylase 4

Cn1cc(-c2ccc(S(=O)(=O)n3ccc(/C=C/C(=O)Nc4ccccc4N)c3)cc2)cn1 [DOMATINOSTAT]
> 10 µM: Histone deacetylase 8 | Histone deacetylase 7 | Histone deacetylase 5 [3] | [4]
